Tests used:
[1] = Sweetness level as sucrose equivalent
[2] = system: panel of experts in the sensory evaluation of foods and beverages; experiment: Sensory evaluation of sweetness linger by expert panel; format: in vivo; parameters: key: 0=no sweetness linger; 1=very slight sweetness linger; 2=slight sweetness linger; 3=moderate sweetness linger; 4=moderately high sweetness linger; 5=high sweetness linger; conditions: for Sweetness linger rating: scale 0-5; for Sweetness Linger rating as defined for the protocol's controls: scale anchors: sucrose, 500 ppm REBA control sample
Experimental: In a particular embodiment, a panel of assessors is used to measure the reduction of sweetness linger. Briefly described, a panel of assessors (generally 8 to 12 individuals) is trained to evaluate sweetness perception and measure sweetness at several time points from when the sample is initially taken into the mouth until 3 minutes after it has been expectorated. […] A decrease in score for a time point measured after the sample has cleared the mouth indicates there has been a reduction in sweetness perception.
The panel of assessors may be trained using procedures well known to those of ordinary skill in the art. In a particular embodiment, the panel of assessors may be trained using the Spectrum™ Descriptive Analysis Method (Meilgaard et al, Sensory Evaluation Techniques, 3rd edition, Chapter 11). Desirably, the focus of training should be the recognition of and the measure of the basic tastes; specifically, sweet. In order to ensure accuracy and reproducibility of results, each assessor should repeat the measure of the reduction of sweetness linger about three to about five times per sample, taking at least a five minute break between each repetition and/or sample and rinsing well with water to clear the mouth.
Generally, the method of measuring sweetness comprises taking a 10 mL sample into the mouth, holding the sample in the mouth for 5 seconds and gently swirling the sample in the mouth, rating the sweetness intensity perceived at 5 seconds, expectorating the sample (without swallowing following expectorating the sample), rinsing with one mouthful of water (e.g., vigorously moving water in mouth as if with mouth wash) and expectorating the rinse water, rating the sweetness intensity perceived immediately upon expectorating the rinse water, waiting 45 seconds and, while waiting those 45 seconds, identifying the time of maximum perceived sweetness intensity and rating the sweetness intensity at that time (moving the mouth normally and swallowing as needed), rating the sweetness intensity after another 10 seconds, rating the sweetness intensity after another 60 seconds (cumulative 120 seconds after rinse), and rating the sweetness intensity after still another 60 seconds (cumulative 180 seconds after rinse). Between samples take a 5 minute break, rinsing well with water to clear the mouth.
Sensory evaluation of the samples prepared in Example Set G was carried out under the following protocol, similar to that described hereinabove. In this test protocol, none of the samples were swallowed. […] Immediately upon sensing maximal sweetness, the sample was expectorated, the mouth was rinsed with water and the rate of sweetness decay (“Sweetness Linger”) was measured, where attention was focused on the sweetness 3-4 min after the water rinse. […]

| Compound | sucrose equivalence ([1]; 180 ppm rebaudioside A in 1:1 diluted commercial beverage) | sucrose equivalence ([1]; 400 ppm REBA in citric acid/potassium citrate composition) | Sweetness linger rating ([2]; Example Set G: citric acid/potassium citrate composition equivalent to diet lemon-lime beverage (citrate buffer), sweetness 3-4 min after water rinse) | Sweetness linger rating ([2]; Example Set H: carbon-treated water, phosphoric acid (75%) to pH 2.4-2.5) | Sweetness Linger rating as defined for the protocol's controls [2] |
| --- | --- | --- | --- | --- | --- |
| rebaudioside A | 5 % sucrose | 8 g sucrose | 5 | 5 | 5 |
| OC[C@H]1O[C@@](CO)(O[C@H]2O[C@H](CO)[C@@H](O)[C@H](O)[C@H]2O)[C@@H](O)[C@@H]1O [sugar, sucrose] |  |  |  |  | 0 |

Source: patent publication US8962058B2, “High-potency sweetener composition with antioxidant and compositions sweetened therewith” (The Coca-Cola Company, priority 2005, dated 2015)
